Tests used:
[1] = test system: CD44hi CD4+ TCR transgenic T cells; assay: Mouse experiment with dietary L-arginine: transferred HA TCR transgenic T cells in draining lymph nodes; format: in vivo, BALB/c mice; conditions: daily oral 1.5 mg/g body weight, 15 days after immunization with HA110-119 in CFA
Description: 2×10^5 CD90.1^+ CD4^+ HA TCR-transgenic T cells, on a BALB/c background, were adoptively transferred in Wt CD90.2^4 BALB/c mice. The day after, host mice were immunized s.c. with influenza HA110-119 peptide (purchased from Anaspec) emulsified in CFA. L-Arg (1.5 g/kg body weight) or PBS, as control, was daily orally administrated, starting 1 day before T cell transfer and until the end of the experiment. Draining lymph nodes were analyzed on day 15 post immunization for the presence of transferred transgenic memory CD44^hi CD90.1^+ CD4^+ T cells. Sera were collected 30 min after oral L-arginine administration to mice and L-arginine and L-threonine concentrations in sera were measured on a MassTrak (Waters) instrument at the functional genomics center in Zurich. To determine intracellular L-arginine levels, activated T cells were isolated from draining lymph nodes 60 hours after activation and 30 min after the daily L-arginine administration. Metabolites were extracted with hot 70% ethanol and analyzed by HILIC LC-MS/MS.

B16.OVA melanoma = assay: Tumor experiment: in vitro activation of T cells; format: in vivo, C57BL/6 mice; conditions: L-arginine-treated OT-I T cells transferred into B16 OVA tumor bearing mice
Description: B16-OVA melanoma cells were cultured in RPMI 1640 plus 10% FCS, 1% penicillin/streptomycin and 2 mM glutamine. Before injection into mice, cells were trypsinized and washed twice in PBS. Then, 5×10^5 cells were subcutaneously injected in the dorsal region of Wt C57BL/6 mice. Ten days post injection, 5×10^6 OT-I cells, that have been activated in vitro as described above, were injected into the tail vein of tumor-bearing mice. The size of tumors was measured in a blinded fashion using calipers.

activated CD8+ T cells = assay: IL-2 withdrawal assay and assessment of cell viability, CD8+ T cells; format: cell-based, human; conditions: L-arginine supplementation, 5 days after IL-2 withdrawal
mTOR = assay: Analysis of phosphorylation levels of 4E-BP and S6K1; format: cell-based, human; conditions: 3 mM L-arginine supplementation, 4 days activated
Description: Naïve CD4^+ T cells were activated with plate-bound antibodies to CD3 and CD28. Four days after activation, cells were lysed and analyzed by Western blot with the following antibodies obtained from Cell Signaling Technology. Phospho-p70 S6K(Thr389) #9205; p70 S6 Kinase #9202; Phospho-4E-BP1 (Thr37/46) #2855; 4E-BP1 #9644. Rapamycin (Sigma) was used at 100 nM.

activated (96 h) T cells = assay: Measurements of oxygen consumption rate (Seahorse); format: cell-based, human; conditions: medium supplemented with 3 mM L-arginine, 96 h activated
Description: Measurements were performed using a Seahorse XF-24 extracellular flux analyzer (Seahorse Bioscience). Naïve CD4^+ T cells were sorted and activated with plate-bound CD3 and CD28 antibodies in complete medium or medium supplemented with 3 mM L-arginine. Four days later (in the morning), cells were pooled, carefully count and plated (7×10^5 cells/well) in serum-free unbuffered RPMI-1640 medium (Sigma) onto Seahorse cell plates coated with Cell-Tak (BD Bioscience). The serum-free unbuffered medium was not supplemented with L-arginine. Oligomycin (1.4 μM, Sigma), Carbonyl cyanide-4-(trifluoromethoxy)phenylhydrazone (FCCP, 0.6 μM, Sigma) and antimycin (1.4 μM, Sigma) were injected.

mouse CD8+ OT-I T cells = assay: Survival of activated OT-I T cells in vitro after IL-2 withdrawal; format: cell-based; conditions: L-arginine-supplemented medium 4 days
From the text: FIG. 7. CD8+ T cells with increased L-arginine levels display improved anti-tumor activity in vivo. (A) Survival of activated mouse CD8+OT-I T cells (4 d) after IL-2 withdrawal. Data points represent the difference between the percentage of living T cells from cultures performed in L-Arg medium or Ctrl medium; n=11. (B) CD90.1+CD45.1/2+ and CD90.1+CD45.1+ naïve CD8+ OT-I T cells were activated for 4 days in Ctrl medium or L-Arg medium, respectively. Equal numbers of the congenically marked activated OT-I cells were co-transferred into Cd3e−/− mouse and the number of living T cells was measured in pooled spleen and lymph nodes at the indicated time points; n=3 at each time point. (C) Naïve CD8+ OT-I T cells were activated with CD3+CD28 antibodies in L-Arg medium or control (Ctrl) medium. Five days after activation, the percentage of Tcm-like cells (CD44hi, CD62L+) was measured by flow cytometry; n=15. (D) Naïve OT-I CD8+ T cells were activated in L-Arg medium or Ctrl medium and IFN-γ was quantified in culture supernatants after 5 days; n=15. (E) Same as in (D) but T cells were re-activated on day 5 day with PMA/Ionomycin; n=15. (F, G) B16.OVA melanoma cells were injected into C57BL/6 mice and tumors were allowed to grow for 10 days. […] Tumor burden (F) and survival (G) were assessed over time. […] In (G) *p<0.05 as determined by log-rank test comparison between curves. […]

natural killer cells = conditions: oral administration, healthy volunteers; cited from earlier work
T cell proteome = assay: Limited proteolysis and mass spectrometry (structural changes); format: binding, human

In the case of N=C(N)NCCC[C@H](N)C(=O)O [L-arginine], the “CD44hi CD4+ TCR transgenic T cells recovered in draining lymph nodes compared to control mice” value [1] was “Three times more”, the “anti-tumor response: survival of mice” value (B16.OVA melanoma) was “increased survival of mice” and the “anti-tumor response: tumor size” value (B16.OVA melanoma) was “reduction of tumor size”. For the same compound, the “survival of activated CD8+ T cells in the absence of exogenous cytokines” value (activated CD8+ T cells) was “significantly increased”, the “phosphorylation levels of two targets of mTOR (p70 S6K1 and 4E-BP)” value (mTOR) was “did not change” and the “mitochondrial spare respiratory capacity (SRC)” value (activated (96 h) T cells) was “augmented”. The oxygen consumption increase (activated (96 h) T cells) was 1.7 fold, the “survival capacity of OT-I T cells in vitro” value (mouse CD8+ OT-I T cells) was “higher survival capacity” and the “numbers and activity of natural killer cells” value (natural killer cells) was “enhance the numbers and activity of natural killer cells”. For the same compound, the “protein domains affected by structural changes” value (T cell proteome; 1 mM L-arginine) was “affect the PHD domain of BAZ1B and the AT-hook DNA-binding domain of PSIP1” and the “number of proteins (out of 5,856 identified) with structural change exclusively in response to L-arginine” value (T cell proteome; 1 mM, not affected by D-arginine or L-ornithine, six donors) was 20.

Reference: patent US11167015B2, “Arginine and its use as a T cell modulator” (INSTITUTE FOR RESEARCH IN BIOMEDICINE, priority 2016, dated 2021)
